# In patent US20250144067A1, “PERSONALIZED STARVATION THERAPY FOR CANCER” (Faeth Therapeutics, Inc., priority 2021, published 2025):
# Where a name gives a salt, the structure may show the parent alone. Read-outs that look alike come from different tables or passages of the source.
# Key:
# [1] = system: NCI-H292 lung cancer cells; test: FDA drug screening, complete media vs cholesterol-free media without statin (TABLE 1); assay type: cell-based, human
# [2] = system: NCI-H292 lung cancer cells; test: FDA drug screening, complete media vs cholesterol-free media with simvastatin (TABLE 2); assay type: cell-based, human
# [3] = Complete minus Cholesterol-free, >0 enhanced anti-cancer activity, about 0 neutral, <0 antagonist
# [4] = NCI-H292 cells, cholesterol-free media without statin
# [5] = NCI-H292 cells, cholesterol-free media with simvastatin 0.04 μM, cell growth value in FDA drug screen
# [6] = NCI-H292 cells, complete media, cell growth value in FDA drug screen
# [7] = complete media minus cholesterol-free media + simvastatin, >0 enhanced anti-cancer activity, about 0 neutral, <0 antagonist
# [8] = NCI-H292 cells, cholesterol-free media with simvastatin 0.04 μM, FDA drug library screen (TABLE 2)
# [9] = NCI-H292 cells, complete media, FDA drug library screen (TABLE 2)
# [10] = complete media minus cholesterol-free media + simvastatin (0.04 μM), >0 enhanced anti-cancer activity, about 0 neutral, <0 antagonist
# [11] = complete vs cholesterol-free media, greater than 0 enhanced anti-cancer activity, about 0 neutral, below 0 antagonists
# [12] = NCI-H292 cells, cholesterol-free media without statin, FDA drug library screen
# [13] = NCI-H292 cells, complete media, FDA drug library screen
# [14] = complete vs cholesterol-free media, >0 enhanced anti-cancer activity, about 0 neutral, <0 antagonist
# [15] = NCI-H292 cells, FDA drug library screen, cholesterol-free media with simvastatin 0.04 μM
# [16] = NCI-H292 cells, FDA drug library screen, complete media
# [17] = complete media vs cholesterol-free media + simvastatin (0.04 μM), >0 enhanced anti-cancer activity, about 0 neutral, <0 antagonist
compound,measurement,setting,value
COc1cc2ncnc(Nc3ccc(F)c(Cl)c3)c2cc1OCCCN1CCOCC1 [Gefitinib],Difference,[1]; [3],−0.25
same,Cholesterol-free,[1]; [4],0.6996
same,Complete,"[1]; NCI-H292 cells, complete media",0.4472
same,Cholesterol-free media + simvastatin (0.04 μM),[2]; [5],0.5074
same,Complete Media,[2]; [6],0.6027
same,Difference,[2]; [7],0.10
CC[C@H]1OC(=O)[C@H](C)C(=O)[C@H](C)[C@@H](O[C@@H]2O[C@H](C)C[C@H](N(C)C)[C@H]2O)[C@](C)(OC)C[C@@H](C)C(=O)[C@H](C)[C@H]2N(CCCCn3cnc(-c4cccnc4)c3)C(=O)O[C@]12C [Telithromycin],Difference,"[1]; Complete minus Cholesterol-free, greater than 0 enhanced anti-cancer activity, about 0 neutral, below 0 antagonists",−0.51
same,Cholesterol-free,[1]; NCI-H292 cells in cholesterol-free media without statin,1.316
same,Complete,[1]; NCI-H292 cells in complete media,0.8019
same,Cholesterol-free media + simvastatin (0.04 μM),[2]; [8],0.872
same,Complete Media,[2]; [9],0.854
same,Difference,[2]; [10],−0.02
N[C@@H]1[C@H]2CN(c3nc4c(cc3F)c(=O)c(C(=O)O)cn4-c3ccc(F)cc3F)C[C@@H]12 [Trovafloxacin],Cholesterol-free,[1]; [4],1.186
same,Complete,"[1]; NCI-H292 cells, complete media",0.8678
same,Difference,[1]; [11],−0.32
same,Cholesterol-free media + simvastatin (0.04 μM),[2]; [5],1.092
same,Complete Media,[2]; [6],1.114
same,Difference,[2]; [7],0.02
Cc1nc(Nc2ccc(F)cc2)nc(N2CCc3ccccc3C2C)c1C (stereo not shown) [Revaprazan (hydrochloride)],Cholesterol-free,[1]; [12],1.192
same,Complete,[1]; [13],1.344
same,Difference,[1]; [14],0.15
same,Cholesterol-free media + simvastatin (0.04 μM),[2]; [8],1.005
same,Complete Media,[2]; [9],0.9357
same,Difference,[2]; [10],−0.07
COC(=O)N[C@H](C(=O)N1CCC[C@H]1c1nc(-c2ccc(-c3ccc(-c4c[nH]c([C@@H]5CCCN5C(=O)[C@@H](NC(=O)OC)C(C)C)n4)cc3)cc2)c[nH]1)C(C)C [Daclatasvir],Difference,[1]; [3],0.04
same,Cholesterol-free,[1]; [12],0.703
same,Complete,[1]; [13],0.7437
same,Cholesterol-free media + simvastatin (0.04 μM),[2]; [15],0.9463
same,Complete Media,[2]; [16],1.136
same,Difference,[2]; [7],0.19
O=C(CCC/C=C\C[C@@H]1[C@@H](CC[C@@H](O)CCc2ccccc2)[C@H](O)C[C@@H]1O)OCCCCO[N+](=O)[O-] [Latanoprostene bunod],Cholesterol-free,[1]; [12],0.8229
same,Complete,[1]; [13],1.464
same,Difference,[1]; [14],0.64
same,Cholesterol-free media + simvastatin (0.04 μM),[2]; [15],1.139
same,Complete Media,[2]; [16],1.004
same,Difference,[2]; [17],−0.14
CC(=O)O[C@H]1C(=O)[C@@]2(C)[C@H]([C@H](OC(=O)c3ccccc3)[C@]3(O)C[C@H](OC(=O)[C@H](O)[C@@H](NC(=O)c4ccccc4)c4ccccc4)C(C)=C1C3(C)C)[C@]1(OC(C)=O)CO[C@@H]1C[C@@H]2O [Paclitaxel],Difference,[1]; [3],−0.01
same,Cholesterol-free,[1]; [12],0.0662
same,Complete,[1]; [13],0.05705
same,Cholesterol-free media + simvastatin (0.04 μM),[2]; [8],0.2107
same,Complete Media,[2]; [9],0.1648
same,Difference,[2]; [10],−0.05
Bivalirudin (TFA),Cholesterol-free,[1]; [12],1.02
same,Complete,[1]; [13],1.118
same,Difference,"[1]; complete vs cholesterol-free media, […]",0.10
same,Complete Media,[2]; [16],0.9368
same,Difference,"[2]; complete media vs cholesterol-free media + simvastatin (0.04 μM), […]",−0.13
C#C[C@]1(O)CC[C@H]2[C@@H]3CCC4=CCCC[C@@H]4[C@H]3C(=C)C[C@@]21CC [Desogestrel],Difference,[1]; [3],0.06
same,Cholesterol-free,[1]; [12],0.9017
same,Complete,[1]; [13],0.9645
same,Complete Media,"[2]; NCI-H292 cells, FDA library drug in complete media",1.022
same,Difference,[2]; [17],−0.60
Nc1cccc2c1CN(C1CCC(=O)NC1=O)C2=O (stereo not shown) [Lenalidomide],Difference,"[1]; Complete minus Cholesterol-free, greater than 0 enhanced anti-cancer activity, about 0 neutral, below 0 antagonist",−0.16
same,Cholesterol-free,"[1]; NCI-H292 cells, FDA drug library screen, cholesterol-free media without statin",1.032
same,Complete,[1]; [16],0.8739
same,Cholesterol-free media + simvastatin (0.04 μM),[2]; [8],1.008
same,Complete Media,[2]; [9],0.9958
same,Difference,[2]; [10],−0.01
CNC[C@H](O)[C@@H](O)[C@H](O)[C@H](O)CO.Nc1nc(-n2cc(C(=O)O)c(=O)c3cc(F)c(N4CC(O)C4)c(Cl)c32)c(F)cc1F [Delafloxacin (meglumine)],Cholesterol-free,[1]; [4],1.432
same,Complete,"[1]; NCI-H292 cells, complete media",1.009
same,Difference,[1]; [11],−0.42
same,Cholesterol-free media + simvastatin (0.04 μM),"[2]; NCI-H292 cells, drug in cholesterol-free media with simvastatin 0.04 μM",1.156
same,Complete Media,"[2]; NCI-H292 cells, drug in complete media",0.9953
same,Difference,[2]; [17],−0.16
COc1c(OCCCN2CCOCC2)ccc2c1N=C(NC(=O)c1cnc(N)nc1)N1CCN=C21 [Copanlisib (dihydrochloride)],Difference,[1]; [3],0.02
same,Cholesterol-free,[1]; [12],0.07316
same,Complete,[1]; [13],0.09563
same,Cholesterol-free media + simvastatin (0.04 μM),[2]; [5],0.2902
same,Complete Media,[2]; [6],0.3694
same,Difference,[2]; [7],0.08
N[C@@H](Cc1cc(I)c(Oc2cc(I)c(O)c(I)c2)c(I)c1)C(=O)O.[Na] [L-Thyroxine (sodium)],Difference,[1]; [3],−0.07
same,Cholesterol-free,[1]; [12],1.137
same,Complete,[1]; [13],1.071
same,Cholesterol-free media + simvastatin (0.04 μM),[2]; [5],0.8676
same,Complete Media,[2]; [6],0.8889
same,Difference,[2]; [7],0.02
OCc1ccc(O[C@@H]2O[C@H](CO)[C@@H](O)[C@H](O)[C@H]2O)cc1 [Gastrodin],Cholesterol-free,[1],1.466
same,Complete,[1],1.162
same,Difference,[1],−0.30
same,Cholesterol-free media + simvastatin (0.04 μM),[2],1.131
same,Complete Media,[2],1.355
same,Difference,[2],0.22
